Source: article PMC10487658, “Identification and Characterization of RK22, a Novel Antimicrobial Peptide from Hirudinaria manillensis against Methicillin Resistant Staphylococcus aureus” (International Journal of Molecular Sciences, 2023)
No end group written: not given here.

Columns and labels:
[1] = tested on: mouse red blood cells; assay: Hemolysis assay; format: cell-based; conditions: up to 400 μg/mL, 37 °C, 1 h, absorbance 540 nm, 1% Triton X-100 = 100%, 3 independent experiments
Experimental: The hemolysis and cytotoxicity assays were performed according to previous research with some modifications. In the hemolysis assay, mouse blood was collected in anticoagulant tubes, centrifuged (1000× g, 5 min), and washed with normal saline three times to obtain red blood cells. The red blood cells were then resuspended to prepare a 10% red blood cell suspension. The suspension was mixed with an equal volume solution of RK22 (final concentration 0–400 μg/mL), then incubated at 37 °C for 1 h and centrifuged (1000× g, 10 min). After this, 150 μL of the supernatant was transferred to a new 96-well plate, with absorbance then measured at 540 nm. Additionally, 1% Triton X-100 and sterile saline treatment groups accounted for 100% and 0% hemolysis, respectively.
Supplementary Figures and Figure legends
Figure S1. […] After incubation for 60 min at 37°C, cells were centrifuged (3,500 rpm, 5 min) and the absorbance of the supernatant was measured at 540 nm. The value for “zero hemolysis” was determined using sterile saline (negative control, NC), while 100% hemolysis was established using 1% (v/v) Triton X-100 (PC: positive control). Hemolysis of testing sample was calculated as the percentage of Triton X-100-induced hemolysis. […] Cell viability was determined by adding 10 μl CCK8 in to the cells and incubated for 1-4 h. The absorbance at 450 nm of the solution was measured with a microplate reader. […]

[2] = tested on: E. coli, ATCC25922; format: cell-based, Escherichia coli; conditions: E. coli ATCC25922; RPMI 1640, 37 °C, 12–16 h, absorbance at 600 nm
[3] = tested on: washed platelets; assay: Platelet activity assay, flow cytometry; format: cell-based; conditions: mouse washed platelets, 20, 10, 5, 2.5 μg/mL, 10 min, P-selectin
Experimental: Platelets were isolated from the mice as described in a previous study with minor modifications. The effect of RK22 and LL-37 on platelet activity was detected by flow cytometry. Mouse blood was mixed with Tyrode’s buffer A (137 mM NaCl, 2 mM KCl, 0.3 mM NaH2PO4, 12 mM NaHCO3, 5.5 mM glucose, 0.35% BSA, 1 mM MgCl2, and 0.2 mM EDTA, pH 6.5) and centrifuged (150× g, 10 min, room temperature) to obtain platelet-rich plasma (PRP), which was then pelleted (400× g, 5 min, room temperature), washed with Tyrode’s buffer A, and finally resuspended in Tyrode’s buffer B (137 mM NaCl, 2 mM KCl, 0.3 mM NaH2PO4, 12 mM NaHCO3, 5.5 mM glucose, 0.35% BSA and 2 mM CaCl2, pH 7.4). Antibodies against P-selectin (Biolegend, San Diego, CA, USA) were added to the platelets, followed by incubation for 10 min at room temperature. Samples (20, 10, 5, and 2.5 μg/mL) or normal saline were added, respectively, and analyzed by flow cytometry (BD, LSRFortessa^TM, Franklin Lakes, NJ, USA).

[4] = tested on: SA220823 (clinically isolated S. aureus); assay: microbe, parasite or virus in culture; format: cell-based, Staphylococcus aureus; conditions: SA220823 (clinically isolated)
Experimental: (§1) The bacterial strains used in this study included Pseudomonas aeruginosa (P. aeruginosa, ATCC27853), Acinetobacter baumannii (A. baumannii, ATCC19606), Escherichia coli (E. coli, ATCC8739), and S. aureus (ATCC6538, two clinically isolated strains (SA220823 and SA15772)), and three clinically isolated methicillin-resistant strains (MRSA-Z, MRSA11, and MRSA22). All strains were grown in Luria-Bertani (LB) broth.
(§2) The minimum inhibitory concentration (MIC) for all strains was determined using the […] assay based on a previous study with minor modifications. Initially, strains in the exponential phase were diluted to a concentration of 2 × 10^5 CFU/mL using RPMI 1640 medium (Corning, New York, NY, USA). Next, 100 μL of the bacterial suspension was mixed with 100 μL of the sample solution (final concentration 0–200 μg/mL in RPMI 1640 medium) in 96-well plates. The plates were then incubated at 37 °C for 12–16 h. After incubation, the absorbance at 600 nm was measured, and the MIC was determined as the lowest concentration of the test sample in which no bacterial growth was detected in the well.

[5] = tested on: S. aureus (ATCC6538); assay: microbe, parasite or virus in culture; format: cell-based, Staphylococcus aureus
Experimental: as §1, §2

[6] = tested on: MRSA11 (clinically isolated methicillin-resistant S. aureus); assay: microbe, parasite or virus in culture; format: cell-based, Staphylococcus aureus; conditions: MRSA11 (clinically isolated methicillin-resistant)
Experimental: as §1, §2

[7] = tested on: SA15772 (clinically isolated S. aureus); assay: microbe, parasite or virus in culture; format: cell-based, Staphylococcus aureus; conditions: SA15772 (clinically isolated)
Experimental: as §1, §2

[8] = tested on: MRSA22 (clinically isolated methicillin-resistant S. aureus); assay: microbe, parasite or virus in culture; format: cell-based, Staphylococcus aureus; conditions: MRSA22 (clinically isolated methicillin-resistant)
Experimental: as §1, §2

[9] = tested on: MRSA-Z (clinically isolated methicillin-resistant S. aureus); assay: microbe, parasite or virus in culture; format: cell-based, Staphylococcus aureus; conditions: -Z (clinically isolated methicillin-resistant)
Experimental: as §1, §2

[10] = tested on: S. aureus (ATCC6538); format: in vitro ADME, Staphylococcus aureus
Experimental: (§3) We determined the stability of RK22 in plasma according to the previously reported method. Briefly, an equal volume of RK22 was mixed with human plasma and diluted to a concentration of 5 mg/mL. The MICs of RK22 against S. aureus ATCC6538 and methicillin-resistant S. aureus MRSA-Z were determined after incubation at 37 °C for different times (0, 2, 4, 6, 8, and 10 h).

[11] = tested on: MRSA-Z; format: in vitro ADME, Staphylococcus aureus
Experimental: as §3

[12] = tested on: A. baumannii, ATCC19606; format: cell-based, Acinetobacter baumannii; conditions: RPMI 1640, 2 × 10^5 CFU/mL, 37 °C, 12–16 h, absorbance at 600 nm
Experimental: as §1, §2

With RKYKEKKDKSQNKKKKRKCMIL [RK22] the hemolytic activity [1] was “did not exhibit any obvious hemolytic activity”, the MIC [2] was 25 µg/mL and the platelet activation [3] was “did not exert any such effects”. The MIC [4] was 12.5 µg/mL, the MIC [5] was 6.25 µg/mL and the MIC [6] was 6.25 µg/mL. The MIC [7] was 12.5 µg/mL, the MIC [8] was 6.25 µg/mL and the MIC [9] was 6.25 µg/mL. The “MIC after incubation in plasma” value [10] was 6.25 µg/mL, the “MIC after incubation in plasma” value [11] was 6.25 µg/mL and the MIC [12] was 100 µg/mL.
